In paper PMC10924921, “Mi-2β promotes immune evasion in melanoma by activating EZH2 methylation” (Nature Communications, 2024):

Columns and labels:
Test in all cases: biochemical
Set-up in all cases: KINOMEscan active-site competition binding panel (468 kinase assays), per cent of control at 1000 nM
Conditions in all cases: KINOMEscan per cent of control (binding competition); read-out: Percent Control
ABL1-phosphorylated = target: T1, ABL1-phosphorylated (Homo sapiens, UniProt P00519)
T1 construct: phosphorylated
Text: (§1) Figure S7 / Percent Control

BIKE = target: T2, BIKE (Homo sapiens, UniProt Q9NSY1)
T2 construct: gene BMP2K
Text: as §1

CDK8 = CDK8 (Homo sapiens, UniProt P49336)
Text: as §1

CDKL1 = CDKL1 (Homo sapiens, UniProt Q00532)
CDKL1, sequence (Q00532 whole entry): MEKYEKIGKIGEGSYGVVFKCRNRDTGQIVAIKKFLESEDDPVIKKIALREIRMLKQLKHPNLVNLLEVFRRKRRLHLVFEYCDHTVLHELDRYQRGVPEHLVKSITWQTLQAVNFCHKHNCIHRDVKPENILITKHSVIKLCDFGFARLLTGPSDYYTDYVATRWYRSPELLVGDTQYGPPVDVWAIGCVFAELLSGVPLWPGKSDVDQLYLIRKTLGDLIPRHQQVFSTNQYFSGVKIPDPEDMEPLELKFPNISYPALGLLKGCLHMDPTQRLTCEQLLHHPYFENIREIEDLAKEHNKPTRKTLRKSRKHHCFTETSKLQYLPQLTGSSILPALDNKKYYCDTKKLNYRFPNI
Text: as §1

CDKL5 = CDKL5 (Homo sapiens, UniProt O76039)
Text: as §1

ERBB4 = ERBB4 (Homo sapiens, UniProt Q15303)
ERBB4, sequence (Q15303 whole entry): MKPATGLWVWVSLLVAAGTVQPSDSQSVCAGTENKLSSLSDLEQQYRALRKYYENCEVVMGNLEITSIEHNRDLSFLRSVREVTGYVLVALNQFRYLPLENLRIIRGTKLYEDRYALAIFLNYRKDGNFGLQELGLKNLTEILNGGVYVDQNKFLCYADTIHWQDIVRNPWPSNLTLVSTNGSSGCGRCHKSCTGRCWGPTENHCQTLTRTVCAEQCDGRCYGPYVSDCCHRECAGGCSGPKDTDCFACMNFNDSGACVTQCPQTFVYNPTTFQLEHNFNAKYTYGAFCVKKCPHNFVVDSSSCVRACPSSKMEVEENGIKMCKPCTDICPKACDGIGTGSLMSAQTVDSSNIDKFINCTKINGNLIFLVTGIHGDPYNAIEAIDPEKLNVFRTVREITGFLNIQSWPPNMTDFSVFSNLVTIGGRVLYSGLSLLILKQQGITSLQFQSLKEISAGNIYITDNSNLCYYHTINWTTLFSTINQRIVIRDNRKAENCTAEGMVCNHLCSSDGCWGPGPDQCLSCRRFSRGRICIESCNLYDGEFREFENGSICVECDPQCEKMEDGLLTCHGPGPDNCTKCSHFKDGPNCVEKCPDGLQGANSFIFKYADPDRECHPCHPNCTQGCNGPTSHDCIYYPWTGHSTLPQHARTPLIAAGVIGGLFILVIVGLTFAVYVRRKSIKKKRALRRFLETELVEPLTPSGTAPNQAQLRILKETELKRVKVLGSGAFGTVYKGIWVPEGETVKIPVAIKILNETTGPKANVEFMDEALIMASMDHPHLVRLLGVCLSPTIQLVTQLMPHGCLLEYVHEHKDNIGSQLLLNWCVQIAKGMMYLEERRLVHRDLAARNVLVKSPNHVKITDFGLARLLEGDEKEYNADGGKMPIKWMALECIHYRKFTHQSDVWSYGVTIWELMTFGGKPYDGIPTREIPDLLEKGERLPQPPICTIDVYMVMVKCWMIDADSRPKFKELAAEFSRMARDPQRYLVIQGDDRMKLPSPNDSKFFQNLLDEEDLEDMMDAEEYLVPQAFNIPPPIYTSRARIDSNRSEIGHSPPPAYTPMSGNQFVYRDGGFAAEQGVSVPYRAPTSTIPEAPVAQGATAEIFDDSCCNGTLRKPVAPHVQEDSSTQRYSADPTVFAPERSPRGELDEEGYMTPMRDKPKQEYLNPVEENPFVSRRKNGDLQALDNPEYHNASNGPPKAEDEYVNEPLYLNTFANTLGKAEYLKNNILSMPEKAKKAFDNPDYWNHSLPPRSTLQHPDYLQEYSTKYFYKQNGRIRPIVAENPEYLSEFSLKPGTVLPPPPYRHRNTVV
Text: as §1

ERK5 = target: T3, ERK5 (Homo sapiens, UniProt Q13164)
T3 construct: gene MAPK7
Text: as §1

FGR = FGR (Homo sapiens, UniProt P09769)
Text: as §1

HIPK1 = HIPK1 (Homo sapiens, UniProt Q86Z02)
HIPK1, sequence (Q86Z02 whole entry): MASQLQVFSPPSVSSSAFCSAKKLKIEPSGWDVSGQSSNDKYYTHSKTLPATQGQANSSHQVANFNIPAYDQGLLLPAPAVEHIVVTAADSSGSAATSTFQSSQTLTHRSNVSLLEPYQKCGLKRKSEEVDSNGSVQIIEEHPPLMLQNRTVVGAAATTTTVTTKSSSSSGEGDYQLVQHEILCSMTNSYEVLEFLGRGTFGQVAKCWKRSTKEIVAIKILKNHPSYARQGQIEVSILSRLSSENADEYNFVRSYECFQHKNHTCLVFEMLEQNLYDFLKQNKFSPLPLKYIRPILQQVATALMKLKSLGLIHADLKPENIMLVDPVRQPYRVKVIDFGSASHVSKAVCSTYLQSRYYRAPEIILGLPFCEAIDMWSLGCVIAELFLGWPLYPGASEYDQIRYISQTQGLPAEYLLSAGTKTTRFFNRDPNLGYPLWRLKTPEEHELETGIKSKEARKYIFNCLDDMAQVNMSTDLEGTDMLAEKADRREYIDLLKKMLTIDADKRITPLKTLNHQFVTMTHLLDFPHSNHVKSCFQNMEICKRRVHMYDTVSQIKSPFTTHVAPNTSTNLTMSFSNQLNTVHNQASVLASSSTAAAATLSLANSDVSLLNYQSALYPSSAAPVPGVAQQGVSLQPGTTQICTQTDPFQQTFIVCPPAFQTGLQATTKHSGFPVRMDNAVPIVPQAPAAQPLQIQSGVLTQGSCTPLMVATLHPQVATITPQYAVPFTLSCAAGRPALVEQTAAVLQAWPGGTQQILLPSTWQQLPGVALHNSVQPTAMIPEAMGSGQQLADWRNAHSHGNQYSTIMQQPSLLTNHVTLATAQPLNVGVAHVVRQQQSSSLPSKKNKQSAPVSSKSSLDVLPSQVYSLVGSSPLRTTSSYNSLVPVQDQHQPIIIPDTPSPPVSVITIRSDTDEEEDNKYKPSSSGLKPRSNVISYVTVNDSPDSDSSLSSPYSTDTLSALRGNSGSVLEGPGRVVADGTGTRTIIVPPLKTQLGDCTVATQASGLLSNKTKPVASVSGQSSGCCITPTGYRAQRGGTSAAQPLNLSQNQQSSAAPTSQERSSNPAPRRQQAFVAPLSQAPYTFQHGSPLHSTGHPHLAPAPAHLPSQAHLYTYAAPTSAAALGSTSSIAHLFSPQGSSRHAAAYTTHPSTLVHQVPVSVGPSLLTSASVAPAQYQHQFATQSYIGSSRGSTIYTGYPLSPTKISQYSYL
Text: as §1

[1] = target: T4, JAK3(JH1domain-catalytic) (Homo sapiens, UniProt P52333)
T4 construct: JH1domain-catalytic
Text: as §1

JNK3 = target: T5, JNK3 (Homo sapiens, UniProt P53779)
T5 construct: gene MAPK10
Text: as §1

KIT(V559D,T670I) = KIT(V559D,T670I) (Homo sapiens, UniProt P10721, T670I/V559D)
Text: as §1

MAP4K2 = MAP4K2 (Homo sapiens, UniProt Q12851)
Text: as §1

MAPKAPK5 = MAPKAPK5 (Homo sapiens, UniProt Q8IW41)
MAPKAPK5, sequence (Q8IW41 whole entry): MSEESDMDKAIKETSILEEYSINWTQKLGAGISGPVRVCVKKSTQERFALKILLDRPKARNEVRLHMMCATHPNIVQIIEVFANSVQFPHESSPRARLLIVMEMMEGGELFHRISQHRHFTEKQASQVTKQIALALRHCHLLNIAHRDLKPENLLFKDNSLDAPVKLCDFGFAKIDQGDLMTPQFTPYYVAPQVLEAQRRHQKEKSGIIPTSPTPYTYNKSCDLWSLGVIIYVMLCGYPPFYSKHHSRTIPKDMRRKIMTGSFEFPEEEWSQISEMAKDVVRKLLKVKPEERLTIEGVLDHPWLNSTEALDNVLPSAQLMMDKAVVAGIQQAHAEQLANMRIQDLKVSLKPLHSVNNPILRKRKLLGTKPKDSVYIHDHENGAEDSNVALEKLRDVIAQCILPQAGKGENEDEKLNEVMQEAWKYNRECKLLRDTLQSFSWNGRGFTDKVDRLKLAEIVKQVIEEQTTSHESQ
Text: as §1

MAST1 = MAST1 (Homo sapiens, UniProt Q9Y2H9)
MAST1, sequence (Q9Y2H9 whole entry): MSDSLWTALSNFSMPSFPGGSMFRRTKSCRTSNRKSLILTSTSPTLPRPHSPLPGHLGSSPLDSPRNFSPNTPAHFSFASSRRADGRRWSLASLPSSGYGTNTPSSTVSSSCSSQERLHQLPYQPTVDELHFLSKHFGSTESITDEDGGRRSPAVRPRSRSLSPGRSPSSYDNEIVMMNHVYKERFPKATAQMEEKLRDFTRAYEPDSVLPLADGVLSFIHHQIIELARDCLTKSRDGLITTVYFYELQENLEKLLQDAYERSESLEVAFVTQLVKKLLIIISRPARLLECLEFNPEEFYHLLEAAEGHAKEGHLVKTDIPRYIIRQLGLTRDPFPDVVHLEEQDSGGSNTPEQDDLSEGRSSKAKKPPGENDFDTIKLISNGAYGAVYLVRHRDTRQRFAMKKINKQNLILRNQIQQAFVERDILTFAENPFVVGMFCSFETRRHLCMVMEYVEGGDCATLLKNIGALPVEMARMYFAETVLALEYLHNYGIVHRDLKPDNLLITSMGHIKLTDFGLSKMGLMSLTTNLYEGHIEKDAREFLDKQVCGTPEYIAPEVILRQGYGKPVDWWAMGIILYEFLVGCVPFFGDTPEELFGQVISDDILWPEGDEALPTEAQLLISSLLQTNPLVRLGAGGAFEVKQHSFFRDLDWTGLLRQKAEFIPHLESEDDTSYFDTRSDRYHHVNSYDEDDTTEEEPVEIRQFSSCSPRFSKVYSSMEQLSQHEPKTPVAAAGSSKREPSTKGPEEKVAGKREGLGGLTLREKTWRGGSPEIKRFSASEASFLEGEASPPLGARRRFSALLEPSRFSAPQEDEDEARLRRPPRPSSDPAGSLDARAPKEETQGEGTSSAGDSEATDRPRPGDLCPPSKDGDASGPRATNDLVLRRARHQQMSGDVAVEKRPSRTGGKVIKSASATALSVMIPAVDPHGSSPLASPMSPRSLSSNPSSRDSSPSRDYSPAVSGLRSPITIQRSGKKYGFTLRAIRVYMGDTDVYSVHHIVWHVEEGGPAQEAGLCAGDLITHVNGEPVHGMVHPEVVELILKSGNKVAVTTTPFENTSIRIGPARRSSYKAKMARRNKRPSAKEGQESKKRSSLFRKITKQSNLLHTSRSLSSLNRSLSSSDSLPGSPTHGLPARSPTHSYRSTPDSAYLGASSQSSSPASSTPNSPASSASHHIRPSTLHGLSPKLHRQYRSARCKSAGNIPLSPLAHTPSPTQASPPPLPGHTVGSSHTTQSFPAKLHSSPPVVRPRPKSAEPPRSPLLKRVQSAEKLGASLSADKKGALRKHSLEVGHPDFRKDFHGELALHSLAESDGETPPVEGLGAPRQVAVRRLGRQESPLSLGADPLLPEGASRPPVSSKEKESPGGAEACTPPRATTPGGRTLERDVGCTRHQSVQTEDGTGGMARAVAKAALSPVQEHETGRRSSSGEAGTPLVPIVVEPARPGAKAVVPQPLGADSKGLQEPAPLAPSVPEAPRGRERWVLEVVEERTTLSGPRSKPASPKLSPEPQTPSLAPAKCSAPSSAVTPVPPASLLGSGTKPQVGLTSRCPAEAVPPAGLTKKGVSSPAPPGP
Text: as §1

PDGFRA = PDGFRA (Homo sapiens, UniProt P16234)
Text: as §1

PRKG2 = PRKG2 (Homo sapiens, UniProt Q13237)
Text: as §1

RET = RET (Homo sapiens, UniProt P07949)
Text: as §1

STK39 = STK39 (Homo sapiens, UniProt Q9UEW8)
Text: as §1

TAOK2 = TAOK2 (Homo sapiens, UniProt Q9UL54)
Text: as §1

TRKA = target: T6, TRKA (Homo sapiens, UniProt P04629)
T6 construct: gene NTRK1
Text: as §1

TTK = TTK (Homo sapiens, UniProt P33981)
Text: as §1

WNK1 = WNK1 (Homo sapiens, UniProt Q9H4A3)
Text: as §1

WNK3 = WNK3 (Homo sapiens, UniProt Q9BYP7)
Text: as §1

YANK2 = target: T7, YANK2 (Homo sapiens, UniProt Q9NY57)
T7 construct: gene STK32B
Text: as §1

## Cn1c(=O)[nH]c2ccc(-c3cccc(C(=O)NC4CCn5ccnc5C4)c3)cc21 (stereo not shown) [Z36-MP5]
ABL1-phosphorylated
  remaining binding at 1 µM: 51%
BIKE
  remaining binding at 1 µM: 100%
CDK8
  remaining binding at 1 µM: 55%
CDKL1
  remaining binding at 1 µM: 41%
CDKL5
  remaining binding at 1 µM: 39%
ERBB4
  remaining binding at 1 µM: 96%
ERK5
  remaining binding at 1 µM: 86%
FGR
  remaining binding at 1 µM: 85%
HIPK1
  remaining binding at 1 µM: 100%
[1]
  remaining binding at 1 µM: 70%
JNK3
  remaining binding at 1 µM: 100%
KIT(V559D,T670I)
  remaining binding at 1 µM: 86%
MAP4K2
  remaining binding at 1 µM: 81%
MAPKAPK5
  remaining binding at 1 µM: 63%
MAST1
  remaining binding at 1 µM: 72%
PDGFRA
  remaining binding at 1 µM: 75%
PRKG2
  remaining binding at 1 µM: 88%
RET
  remaining binding at 1 µM: 67%
STK39
  remaining binding at 1 µM: 60%
TAOK2
  remaining binding at 1 µM: 87%
TRKA
  remaining binding at 1 µM: 67%
TTK
  remaining binding at 1 µM: 91%
WNK1
  remaining binding at 1 µM: 59%
WNK3
  remaining binding at 1 µM: 69%
YANK2
  remaining binding at 1 µM: 56%
